# Source: patent US20200095296A1, “USE OF PEPTIDES AS BIOMARKERS IN THE DIAGNOSIS, CONFIRMATION AND TREATMENT OF A NEUROLOGICAL DISORDER AND TCR AND/OR HLA IMMUNOPROFILING IN NEURODEGENERATIVE DISEASE” (THE TRUSTEES OF COLUMBIA UNIVERSITY IN THE CITY OF NEW YORK, priority 2017, published 2020)
# Where no end group is shown, it is not given here. [ ]: non-standard residue; d: D form. pT = C[C@@H](OP(=O)(O)O)[C@H](N)C(=O)O; pS = N[C@@H](COP(=O)(O)O)C(=O)O
# Test system: PBMC
# Assay: IFNg/IL-5 dual ELISPOT after 14 day in vitro stimulation of PBMC with Tau peptides
# Format: cell-based, human
# Details: for PD % of Total Responders / PD Total SFC / PD Total Responders: PD donors; for % of total response / Average SFC per responder / Frequency of response / Total SFC per epitope: across all cohorts; for Total Responders / Total SFC: all three cohorts (PD, HC > 50, HC < 35); for HC < 35 Total Responders / HC < 35 Total SFC: healthy controls < 35 years old
# Excerpt: It was investigated whether T cell responses against Tau were detectable in the PD and healthy control (HC) donors. To this end, a panel of overlapping peptides spanning through the entire sequence of the Tau protein was synthesized. Since it is known that the Tau protein is post-translationally modified (mainly by phosphorylation), in several instances phosphorylated peptides were also synthesized. In all, 55 non-modified 16-mers overlapping by 8 and 14 modified 16-mers were synthesized.
# PD: n=16, peptides tested 14-16 times; HC above 50 years old denominated as age-matched: n=11 (9-11 times) and HC below 35 years old (HC Young): n=13 (10-13 times).
# These peptides were tested utilizing the following assay strategy. Briefly, PBMC from each donor were stimulated in vitro for 14 days as described (Hinz, D., 2015) with pools of 10 to 16 peptides each. After 14 days, the T cell cultures were assayed with IFNg/IL-5 dual ELISPOT assays […]. Positive pools were deconvoluted at day 17 to identify the specific individual epitopes recognized.
# [1] = healthy controls > 50 years old
Sequence,PD/HC > 50 Ratio of % Responders,PD/HC > 50 Ratio of Response,HC > 50 % of Total Responders [%],"HC > 50 Total SFC (HC > 50, dominant epitopes) [SFC]",PD % of Total Responders [%],PD Total SFC (dominant epitopes) [SFC],% of total response [%],Average SFC per responder [SFC],Frequency of response,Total SFC per epitope [SFC],PD Total Responders,PD Total SFC [SFC],Total Responders,Total SFC [SFC],HC < 35 Total Responders,HC < 35 Total SFC [SFC],HC > 50 Total Responders [1],HC > 50 Total SFC [1] [SFC]
"KKIETHKLTFRENAKA (listed as Homo sapiens) [Tau 16-mer, start 369]",1.4,1.4,31.3,5898,43.8,8190,5.4,1174,30.2,18790,–,–,–,–,–,–,–,–
"KTDHGAEIVYKSPVVS (listed as Homo sapiens) [Tau 16-mer, start 385]",7.0,5.5,8.3,2437,58.3,13336,5.7,1679,22.6,20142,–,–,–,–,–,–,–,–
KVAVVRTPPKSPSSAK (KVAVVR[pT]PPKSPSSAK; listed as Homo sapiens),inf,inf,0.0,0,100.0,4556,1.3,911,9.4,4556,5,4556,5,4556,0,0,0,0
KVAVVRXPPKSPSSAK,4.0,3.2,13.0,6987,52.2,22410,13.2,12014,43.4,46324,12,22410,23,46324,8,16927,3,6987
"LATLADEVSASLAKQG (listed as Homo sapiens) [Tau 16-mer, start 425]",0.3,0.5,75.0,2530,25.0,1263,1.1,948,7.5,3793,–,–,–,–,–,–,–,–
PAPKTPPSSGEPPKSG (PAPK[pT]PPSSGEPPKSG; listed as Homo sapiens),–,–,–,–,–,–,–,–,–,–,0,0,1,107,0,0,1,107
PAPKXPPSSGEPPKSG (PAPK[pT]PPSSGEPPKSG),1.8,2.4,19.2,6207,34.6,14672,12.2,1639,49.1,42624,9,14672,26,42624,12,21745,5,6207
"PMPDLKNVKSKIGSTE (PMPDLKNVKSKIG[pS]TE; listed as Homo sapiens) [Tau 16-mer, start 249]",1.7,2.2,30.0,6084,50.0,13363,5.7,1982,18.9,19815,5,13363,10,19815,2,368,3,6084
PMPDLKNVKSKIGZTE,1.3,1,36.4,5168,45.5,5175,3.2,1006,20.8,11063,5,5175,11,11063,2,720,4,5168
